Results as given in the supplement of paper PMC4862054.

Columns and labels:
Assay in all cases: normalised response (% of control), CellTiter-Glo; higher = more viable cells (100 = DMSO, 0 = benzethonium chloride kill control)
Conditions in all cases: incubation time: 72 h
BT-474 = system: BT-474
Method in brief: (§1)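 A 20 µl suspension of breast cancer cells was seeded into each well of 384-well plates containing compound at 5 concentrations in 10-fold steps over a compound-specific 10,000-fold range. After 72 h incubation, CellTox Green fluorescence (485/520 nm) was read first, and CellTiter-Glo luminescence was read after 10 min at room temperature. Each plate was normalised against 0.1 % DMSO (100) and a positive kill control (0), and each value is the normalised signal at one concentration.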

BT-549 = system: BT-549
Method in brief: as §1

CAL-120 = system: CAL-120
Method in brief: as §1

CAL-148 = system: CAL-148
Method in brief: as §1

CAL-51 = system: CAL-51
Method in brief: as §1

CAL-85-1 = system: CAL-85-1
Method in brief: as §1

DU-4475 = system: DU-4475
Method in brief: as §1

HCC1143 = system: HCC1143
Method in brief: as §1

HCC1599 = system: HCC1599
Method in brief: as §1

HCC1937 = system: HCC1937
Method in brief: as §1

HDQ-P1 = system: HDQ-P1
Method in brief: as §1

Hs578T = system: Hs578T
Method in brief: as §1

MCF-10A = system: MCF-10A
Method in brief: as §1

MDA-MB-231 = system: MDA-MB-231
Method in brief: as §1

MDA-MB-436 = system: MDA-MB-436
Method in brief: as §1

MDA-MB-453 = system: MDA-MB-453
Method in brief: as §1

MDA-MB-468 = system: MDA-MB-468
Method in brief: as §1

MFM-223 = system: MFM-223
Method in brief: as §1

SK-BR-3 = system: SK-BR-3
Method in brief: as §1

Structure (SMILES)	normalised response (BT-474) [%]	normalised response (BT-549) [%]	normalised response (CAL-120) [%]	normalised response (CAL-148) [%]	normalised response (CAL-51) [%]	normalised response (CAL-85-1) [%]	normalised response (DU-4475) [%]	normalised response (HCC1143) [%]	normalised response (HCC1599) [%]	normalised response (HCC1937) [%]	normalised response (HDQ-P1) [%]	normalised response (Hs578T) [%]	normalised response (MCF-10A) [%]	normalised response (MDA-MB-231) [%]	normalised response (MDA-MB-436) [%]	normalised response (MDA-MB-453) [%]	normalised response (MDA-MB-468) [%]	normalised response (MFM-223) [%]	normalised response (SK-BR-3) [%]
CCn1c(C(=O)N(C2CC2)C2CC2)cc2c3c(ncn3C)c(Nc3cc(C)n(C)n3)nc21 (1 nM)	92.6	103	94.4	97.4	135	105	99.7	100	96.7	105	99.6	98	102	106	97.9	89.3	100	102	102
CCn1c(C(=O)N(C2CC2)C2CC2)cc2c3c(ncn3C)c(Nc3cc(C)n(C)n3)nc21 (10 nM)	93.5	95.2	97.3	107	85.3	101	96.9	104	82.5	99.5	95.6	105	99.8	100	103	93.3	106	102	
COc1ccc(S(=O)(=O)Nc2cccnc2Nc2ccc(O)cc2)cc1 [ABT-751] (10 nM)	101	95.8	101	93.6	117	97.5	102	106	124	97.5	98.5	93.8	101	100	108	105	98.2	96.7	
CN[C@@H](C)C(=O)N[C@H]1CN(C(=O)CC(C)C)CC[C@H]2CC[C@@H](C(=O)NC(c3ccccc3)c3ccccc3)N2C1=O [AT-406] (1 nM)	101	106	98.4	98.3	125	96.8	98.2	109	104	101	99.9	95.1	108	98.3	108	103	98.3	101	105
CN[C@@H](C)C(=O)N[C@H]1CN(C(=O)CC(C)C)CC[C@H]2CC[C@@H](C(=O)NC(c3ccccc3)c3ccccc3)N2C1=O [AT-406] (10 nM)	94.3	66.1	96.7	109	126	97.8	99.9	95.5	99.7	104	102	99.5	105	95.5	97.5	89.3	103	105	110
Cc1cc(Nc2nc(N[C@@H](C)c3ncc(F)cn3)ncc2Cl)[nH]n1 [AZD1480] (1 nM)	102	92.5	98	89.7	113	98.4	102	95.7	102	96.4	96.6	99.7	97.1	99.7	101	103	98.1	95.1	118
CNC(=O)c1ccccc1Sc1ccc2c(/C=C/c3ccccn3)n[nH]c2c1 [Axitinib] (10 nM)	107	107	96.7	101	121	102	102	102	111	100	103	97.7	103	107	103	107	96.8	105	106
CC(O)(CS(=O)(=O)c1ccc(F)cc1)C(=O)Nc1ccc(C#N)c(C(F)(F)F)c1 (stereo unspecified) [Bicalutamide] (10 nM)	107	99.5	100	113	105	106	104	105	106	98.6	105	99	109	105	111	100	102	111	130
CCNC(=O)CCC/C=C\C[C@@H]1[C@@H](/C=C/[C@@H](O)CCc2ccccc2)[C@H](O)C[C@@H]1O [Bimatoprost] (5.5 nM)	96.6	91.7	93.1	92.8	106	96.1	99.5	99.4	96.9	96	94.5	98.4	96.4	101	102	96.8	96.5	96.1	
COc1cc(Nc2c(C#N)cnc3cc(OCCCN4CCN(C)CC4)c(OC)cc23)c(Cl)cc1Cl [Bosutinib] (10 nM)	100	98.4	100	105	92.3	94.6	97.7	100	91.1	95.5	97.3	104	96.9	96.1	97.6	104	107	106	102
CCN(CC)CCCC(C)Nc1ccnc2cc(Cl)ccc12 (stereo unspecified) [Chloroquine] (10 nM)	96.5	107	103	89.2	126	99.8	92.2	104	90.9	95.3	99	104	101	101	113	103	95.2	96.7	92.5
CC1(COc2ccc3c(c2)ncn3-c2ccc3cccc(N4CCC(N)CC4)c3n2)COC1 [Crenolanib] (10 nM)	105	95.6	97.8	110	90.6	99.2	103	105	96.2	104	103	98.7	106	106	94.8	94.6	102	108	
CC(C)(C)c1nc(-c2cccc(NS(=O)(=O)c3c(F)cccc3F)c2F)c(-c2ccnc(N)n2)s1 [Dabrafenib] (2.5 nM)	101	99.1	98.5	112	109	99	104	105	99.8	98.4	105	103	112	102	101	111	105	101	
Nc1ccn([C@@H]2O[C@H](CO)[C@@H](O)C2(F)F)c(=O)n1 [Gemcitabine] (1 nM)	100	95	95.9	95.6	66	101	94	100	109	95.7	99.3	98.1	109	97.4	95.5	101	95.7	101	
O=C(O)CNC(=O)c1c(O)c2ccccc2n(Cc2ccccc2)c1=O [IOX-2] (50 nM)	96.9	93.9	98.1	98.7	88	97.1	95.1	94.5	94.1	93.6	95.7	102	103	99.5	96.9	86.3	92.9	104	
CC(=O)[C@]1(O)Cc2c(O)c3c(c(O)c2[C@@H](O[C@H]2C[C@H](N)[C@H](O)[C@H](C)O2)C1)C(=O)c1ccccc1C3=O [Idarubicin] (1 nM)	111	90.5	104	116	91.5	103	101	107	91.1	99.9	99.7	99.5	105	109	113	101	97.7	109	
C/C(=C\c1csc(C)n1)[C@@H]1C[C@@H]2O[C@]2(C)CCC[C@H](C)[C@H](O)[C@@H](C)C(=O)C(C)(C)[C@@H](O)CC(=O)N1 [Ixabepilone] (1 nM)	106	95.5	100	102	129	99.8	102	98.1	85.5	97.6	98.5	105	103	101	99.3	107	104	106	
CN(C)C(=N)NC(=N)N [Metformin] (100 nM)	91.7	99	108	93.7	117	95.7	93	101	97.6	99.6	99.4	94	77.5	102	95.4	76.8	88	87.2	
CC[C@H](CO)Nc1nc(NCc2ccccc2)c2ncn(C(C)C)c2n1 [Seliciclib] (10 nM)	102	99.9	91.9	110	113	108	103	98.7	103	104	94.5	105	107	104	110	104	98.9	101	
O=[N+]([O-])c1ccc2c(c1)S(=O)(=O)C=C2 [Stattic] (50 nM)	98.6	94.6	98.9	103	107	96.5	99.9	106	110	102	100	103	102	101	96.4	97.1	96.9	102	
O=C(CCCCCCC(=O)Nc1ccccc1)NO [Vorinostat] (10 nM)	97.6	106	87.9	98.6	117	105	105	98.4	102	101	94.6	98.1	102	98.2	105	90.3	106	101	
